Experiments:
[1] = system: ornithine decarboxylase (ODC); assay: Inhibition of TPA induction of ornithine decarboxylase (ODC) activity; type: in vivo; details: inhibition of TPA-induced ODC; assay essentially per Cancer Res: 1662-1670, 1975
From the text: The retinoid-like activity of these compounds is confirmed through the classic measure of retinoic acid activity involving the effects of retinoic acid on ornithine decarboxylase. The original work on the correlation between retinoic acid and decrease in cell proliferation was done by Verma & Boutwell, Cancer Research, 1977, 37,2196-2201. That reference discloses that ornithine decarboxylase (ODC) activity increased precedent to polyamine biosynthesis. It has been established elsewhere that increases in polyamine synthesis can be correlated or associated with cellular proliferation. Thus, if ODC activity could be inhibited, cell hyperproliferation could be modulated. Although all causes for ODC activity increases are unknown, it is known that 12-O-tetradecanoylphorbol-13-acetate (TPA) induces ODC activity.

[2] = system: ornithine decarboxylase (ODC); details: in words; background statement; cited from earlier work

SMILES	IC80 [1]	inhibition of induction of ODC activity by TPA [2]
CC1(C)CCCC2(C)OC12/C=C/C#Cc1ccc(C(=O)O)cc1 (racemic) [Compound 1, (±)-4-[(3E)-4-(1,2-Epoxy-2,6,6-trimethylcyclohexan-yl)but-3-en-1-ynyl)]benzoic acid]	4.8 nM	–
CC1(C)CCCC2(C)OC12/C=C/C#Cc1ccc(C(=O)O)s1 (racemic) [Compound 3, (±)-5-[(3E)-4-(1,2-Epoxy-2,6,6-trimethylcyclohexan-yl)but-3-en-1-ynyl)]-2-thiophenecarboxylic acid]	22.3 nM	–
CC1(C)CCCC2(C)OC12/C=C/C#Cc1ccc(C(=O)O)cn1 (racemic) [Compound 4, (±)-6-[(3E)-4-(1,2-Epoxy-2,6,6-trimethylcyclohexan-yl)but-3-en-1-ynyl)]nicotinic acid]	21 nM	–
CCOC(=O)c1ccc(C#C/C=C/C23OC2(C)CCCC3(C)C)nc1 (racemic) [Compound 5, Ethyl (±)-6-[(3E)-4-(1,2-Epoxy-2,6,6-trimethylcyclohexanyl)but-3-en-1-ynyl)nicotinate]	1.07 nM	–
CCOC(=O)c1ccc(C#C/C=C/C23OC2(C)CCCC3(C)C)s1 (racemic) [Compound 6, Ethyl(±)-5-[(3E)-4-(1,2-Epoxy-2,6,6-trimethylcyclohexanyl)but-3-en-1-ynyl)]-2thiophenecarboxylate]	16 nM	–
CC1=C(/C=C/C(C)=C/C=C/C(C)=C/C(=O)O)C(C)(C)CCC1 [Retinoic acid]	–	inhibits this induction of ODC activity by TPA
